Laboratory results: PMC5653355, “Identification of two immortalized cell lines, ECV304 and bEnd3, for in vitro permeability studies of blood-brain barrier” (PLoS ONE, 2017)

Assays:
[1] = Permeability (transport study) across bEnd3 monoculture model; conditions: mouse
Experimental: (§2) For the generation of mono-culture models, ECV304 or bEnd3 cells were seeded on the upper surface of the membrane in Polyester Transwell inserts (0.4 μM pore size, 6.5 mm diameter, 24 well, Costar, Kennebunk, ME, USA) at a density of 5 × 10^4 and 8 × 10^4/cm^2, respectively. […] The culture medium (0.25 ml in the apical compartment and 1 ml in the basolateral compartment to avoid hydrostatic pressure) was replenished every day.
(§3) On day 5~7 after seeding cells, the TEER across cell layers was measured before initiating the transport study by replacing the medium in the apical compartment with tested compounds dissolved in HBSS. […] At indicated time points of 15, 30, 45 and 60 min, the inserts were transferred into new wells containing fresh HBSS to maintain sink conditions. […] Other compounds were analyzed by liquid chromatography tandem mass spectrometer (LC-MS/MS).
(§4) The cleared volume was determined by dividing the compound amount in basolateral compartment by the compound concentration in apical compartment. The slope of the cumulative clearance versus time was calculated by linear regression analysis and denoted as permeability coefficient (PEall) × surface area of the membrane insert (S, 0.33 cm^2). The PEblank of blank inserts was included to calculate the PEcell for cell layers themselves using the following equation: 1/PEcellS = 1/PEallS—1/PEblankS.

[2] = Permeability (transport study) across ECV304 monoculture model; conditions: human
Experimental: as §2, §3, §4

[3] = tested on: ECV304 co-cultured with rat glioma C6 cells; experiment: Permeability to Lucifer yellow in ECV304 co-culture model with C6 cells; type: in vitro ADME, human; conditions: Lucifer yellow 50 μM
Experimental: (§1) For the generation of mono-culture models, ECV304 or bEnd3 cells were seeded on the upper surface of the membrane in Polyester Transwell inserts ([…] pore size, 6.5 mm diameter, 24 well, Costar, Kennebunk, ME, USA) at a density of 5 × 10^4 and 8 × 10^4/cm^2, respectively. For the generation of co-culture models, C6 cells were seeded on the lower surface of the membrane at a density of 5 × 10^4/cm^2 and incubated for 2 h to allow cell attachment before the seeding of ECV304 or bEnd3 cells.

[4] = tested on: bEnd3 co-cultured with rat glioma C6 cells; experiment: Permeability to Lucifer yellow in bEnd3 co-culture model with C6 cells; type: in vitro ADME, mouse; conditions: Lucifer yellow 50 μM
Experimental: as §1

ECV304 cell layers [5] = conditions: cited from earlier work
bEnd3 cell layers = experiment: Permeability (transport study) across bEnd3 monoculture model
Experimental: as §2, §3, §4

ECV304 cell layers [6] = experiment: Permeability (transport study) across ECV304 monoculture model
Experimental: as §2, §3, §4

Papp at 60 min [1] | Papp at 60 min [2] | Molecule | also measured
26.8 ± 0.68 ×10⁻⁶ cm/s | 24.5 ± 1.61 ×10⁻⁶ cm/s | C=C[C@H]1C[N@@]2CC[C@H]1C[C@@H]2[C@@H](O)c1ccnc2ccc(OC)cc12 [Quinidine, quinidine] | –
22.3 ± 2.8 ×10⁻⁶ cm/s | 12.4 ± 0.91 ×10⁻⁶ cm/s | COC(=O)c1ccccc1-c1c2ccc(=N)cc-2oc2cc(N)ccc12 [R123, Rhodamine 123] | –

Further lines, the molecule ahead of its results:

Molecule | Papp at 60 min [1] | Papp at 60 min [2] | also measured
Lucifer yellow | – | – | increase of permeability to Lucifer yellow, co-culture with C6 cells versus monoculture [3]: 2.2 fold; increase of permeability to Lucifer yellow, co-culture with C6 cells versus monoculture [4]: 2 fold; permeability of Lucifer yellow in ECV304 monolayer, published before (ECV304 cell layers [5]): 10.4 ×10⁻⁶ cm/s; permeability to Lucifer yellow (bEnd3 cell layers; bEnd3 monoculture model, Lucifer yellow 50 μM, day 5~7 after seeding, mean ± SD, n = 3): 23.68 ± 1.71 × 10^−6 cm/s; permeability to Lucifer yellow (ECV304 cell layers [6]; ECV304 monoculture model, Lucifer yellow 50 μM, day 5~7 after seeding, mean ± SD, n = 3): 11.17 ± 0.87 × 10^−6 cm/s
C[C@H]1O[C@@H](O[C@H]2[C@@H](O)C[C@H](O[C@H]3[C@@H](O)C[C@H](O[C@H]4CC[C@@]5(C)[C@H](CC[C@@H]6[C@@H]5C[C@@H](O)[C@]5(C)[C@@H](C7=CC(=O)OC7)CC[C@]65O)C4)O[C@@H]3C)O[C@@H]2C)C[C@H](O)[C@@H]1O [Digoxin, digoxin] | 6.24 ± 0.27 ×10⁻⁶ cm/s | 3.29 ± 0.16 ×10⁻⁶ cm/s | –
CC(C)NCC(O)COc1cccc2ccccc12 (stereo not drawn) [Propranolol, propranolol] | 29.7 ± 1.44 ×10⁻⁶ cm/s | 28.4 ± 1.25 ×10⁻⁶ cm/s | permeability ratio of transcellular marker propranolol to paracellular marker Lucifer yellow (bEnd3 cell layers; bEnd3 cells, monoculture): 1.2; permeability ratio of transcellular marker propranolol to paracellular marker Lucifer yellow (ECV304 cell layers [6]; ECV304 cells, monoculture): 2.5
